Here are results for three compounds from patent US12234482B2, “Culture medium for expanding and culturing human liver progenitor cells and application thereof” (Guangzhou Institutes of Biomedicine and Health, Chinese …, priority 2019, dated 2025).

For assay [1], the system named is HBs. Kind of assay: Effects of signaling pathways regulated by small molecules on proliferation of HBs. It is filed as cell-based, human. The conditions noted are these: small molecule regulating a signaling pathway; FIGS. 2B and 2C. Here is the method: Further, effects of the signaling pathways on the proliferation and differentiation of HBs were analyzed by regulating the related signaling pathways with small molecules.

The subject of assay [2] is HBs. Nature of the assay: Effects of signaling pathways regulated by small molecules on characteristics of HBs (AFP expression). It is filed as cell-based, human. The conditions noted are these: FIG. 2D. From the text: In addition to proliferation, the effects of the related signaling pathways on the characteristics of HBs were further analyzed.

For the compound `Cc1cccc(-c2nn(C(=S)Nc3ccccc3)cc2-c2ccnc3ccccc23)n1` [A8301], in the assay on HBs [1], the “proliferation of HBs” value is recorded as “promoted the proliferation of HBs”. The “expression of AFP / maintenance of the characteristics of HBs” value with HBs [2] is reported as “promoted the expression of liver cell-related genes such as AFP”.
For `Cc1c[nH]c(-c2cnc(NCCNc3ccc(C#N)cn3)nc2-c2ccc(Cl)cc2Cl)n1` [CHIR, CHIR99021], in that order: “promoted the proliferation of HBs” and “inhibited the expression of AFP”.
Consider `CNC1CCC(N(Cc2cccc(-c3ccncc3)c2)C(=O)c2sc3ccccc3c2Cl)CC1` (stereo not drawn) [SAG], for which the “proliferation of HBs” value with HBs [1] was “promoted the proliferation of HBs”. In addition, in the assay on HBs [2], the “expression of AFP / maintenance of the characteristics of HBs” value is “promoted the expression of liver cell-related genes such as AFP”.
